# Patent US20240101570A1 (AMGEN INC., priority 2020, published 2024)
# What was measured:
# HCT116 WT cells = test: HCT116 WT cell proliferation / viability (CellTiter-Glo, 6 days); format: cell-based; settings: Homo sapiens, HCT-116, 144 h, HCT116 WT cells, 6 days, CellTiter-Glo; read-out: HCT-116 WT IC50
# How it was run: (§1)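 Viability read by CellTiter-Glo after 6-day compound exposure of MTAP-null and wild-type HCT116 cells grown in RPMI 1640 with 10% FBS. Dosing used 1:3 steps from 1 or 10 μM (8-9 points) or 1:2 steps from 10 or 50 μM (22 points); IC50 taken where fitted curve crosses 50% of control.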
# HCT116 MTAP null cells = test: HCT116 MTAP null cell proliferation / viability (CellTiter-Glo, 6 days); format: cell-based; settings: HCT116-MTAP null, 144 h, HCT116 MTAP null cells, 6 days, CellTiter-Glo; read-out: HCT-116 MTAP null IC50
# How it was run: as §1
Structure (SMILES),IC50 (HCT116 WT cells),IC50 (HCT116 MTAP null cells)
"Nc1nc2cnc(C(=O)N(Cc3ccc(C(F)(F)F)cn3)c3cnn(C4CC4)c3)cc2c2c1COC2 [Example 690, 4-amino-N-(1-cyclopropyl-1H-pyrazol-4-yl)-N-((5-(trifluoromethyl)-2-pyridinyl)methyl)-1,3-dihydrofuro[3,4-c][1,7]naphthyridine-8-carboxamide]",4170 nM,71 nM
"Cn1cc(N(Cc2ccc(C(F)F)cn2)C(=O)c2cc3c4c(c(N)nc3cn2)COC4)cn1 [Example 691, 4-amino-N-((5-(difluoromethyl)-2-pyridinyl)methyl)-N-(1-methyl-1H-pyrazol-4-yl)-1,3-dihydrofuro[3,4-c][1,7]naphthyridine-8-carboxamide]",3880 nM,127 nM
"CN(Cc1ccc(Cl)cn1)C(=O)c1cc2c3c(c(N)nc2cn1)COC3 [Example 694, 4-amino-N-((5-chloro-2-pyridinyl)methyl)-N-methyl-1,3-dihydrofuro[3,4-c][1,7]naphthyridine-8-carboxamide]",> 10000 nM,415 nM
"CN(Cc1ccc(Cl)cn1)C(=O)c1ccc2nc(N)c3c(c2c1)COC3 [Example 702, 4-amino-N-((5-chloro-2-pyridinyl)methyl)-N-methyl-1,3-dihydrofuro[3,4-c]quinoline-8-carboxamide]",4120 nM,470 nM
"CCN(Cc1ccc(Br)nn1)C(=O)c1ccc2nc(N)c3c(c2c1)COC3 [Example 708, 4-amino-N-((6-bromo-3-pyridazinyl)methyl)-N-ethyl-1,3-dihydrofuro[3,4-c]quinoline-8-carboxamide]",8220 nM,153 nM
"Cn1cc(N(Cc2ccc(C(F)(F)F)nn2)C(=O)c2cc3c4c(c(N)nc3cn2)COC4)cn1 [Example 711, 4-amino-N-(1-methyl-1H-pyrazol-4-yl)-N-((6-(trifluoromethyl)-3-pyridazinyl)methyl)-1,3-dihydrofuro[3,4-c][1,7]naphthyridine-8-carboxamide]",4780 nM,148 nM
"Nc1nc2cnc(C(=O)N(Cc3ccc(C(F)(F)F)nn3)CC(F)(F)F)cc2c2c1COC2 [Example 712, 4-amino-N-(2,2,2-trifluoroethyl)-N-((6-(trifluoromethyl)-3-pyridazinyl)methyl)-1,3-dihydrofuro[3,4-c][1,7]naphthyridine-8-carboxamide]",> 50000 nM,2000 nM
"Nc1nc2ccc(C(=O)N(Cc3ccc(C(F)(F)F)nn3)C3COC3)cc2c2c1COC2 [Example 713, 4-amino-N-(3-oxetanyl)-N-((6-(trifluoromethyl)-3-pyridazinyl)methyl)-1,3-dihydrofuro[3,4-c]quinoline-8-carboxamide]",> 50000 nM,5110 nM
"Cn1cc(N(Cc2ccc(C(F)(F)F)cn2)C(=O)c2cc3c4c(c(N)nc3cc2F)COC4)cn1 [Example 714, 4-amino-7-fluoro-N-(1-methyl-1H-pyrazol-4-yl)-N-((5-(trifluoromethyl)-2-pyridinyl)methyl)-1,3-dihydrofuro[3,4-c]quinoline-8-carboxamide]",124 nM,8 nM
"Cn1cc(N(Cc2ccc(C(F)(F)F)cn2)C(=O)c2cc3c4c(c(N)nc3cc2Cl)COC4)cn1 [Example 715, 4-amino-7-chloro-N-(1-methyl-1H-pyrazol-4-yl)-N-((5-(trifluoromethyl)-2-pyridinyl)methyl)-1,3-dihydrofuro[3,4-c]quinoline-8-carboxamide]",70 nM,6 nM
"CC(C)N(Cc1ccc(Cl)cn1)C(=O)c1ccc2nc(N)c3c(c2c1)COC3 [Example 717, 4-amino-N-((5-chloro-2-pyridinyl)methyl)-N-(2-propanyl)-1,3-dihydrofuro[3,4-c]quinoline-8-carboxamide]",7760 nM,609 nM
"CC(C)N(Cc1ccc(Cl)cn1)C(=O)c1cc2c3c(c(N)nc2cn1)COC3 [Example 718, 4-amino-N-((5-chloro-2-pyridinyl)methyl)-N-(2-propanyl)-1,3-dihydrofuro[3,4-c][1,7]naphthyridine-8-carboxamide]",16400 nM,281 nM
"CCN(Cc1ncn(C)n1)C(=O)c1ccc2nc(N)c3c(c2c1)CO[C@@H]3C [Example 720, (3R)-4-amino-N-ethyl-3-methyl-N-((1-methyl-1H-1,2,4-triazol-3-yl)methyl)-1,3-dihydrofuro[3,4-c]quinoline-8-carboxamide]",> 50000 nM,14900 nM
"Nc1nc2cnc(C(=O)N(Cc3ccc(C(F)(F)F)nn3)C3CCC3)cc2c2c1COC2 [Example 721, 4-amino-N-cyclobutyl-N-((6-(trifluoromethyl)-3-pyridazinyl)methyl)-1,3-dihydrofuro[3,4-c][1,7]naphthyridine-8-carboxamide]",9410 nM,209 nM
"C[C@H]1OCc2c1c(N)nc1ccc(C(=O)N(Cc3ccc(C(F)(F)F)nn3)C3CCC3)cc21 [Example 722, (3R)-4-amino-N-cyclobutyl-3-methyl-N-((6-(trifluoromethyl)-3-pyridazinyl)methyl)-1,3-dihydrofuro[3,4-c]quinoline-8-carboxamide]",3350 nM,85 nM
"CCN(Cc1ccc(OC(F)F)nn1)C(=O)c1ccc2nc(N)c3c(c2c1)COC3 [Example 723, 4-amino-N-((6-(difluoromethoxy)-3-pyridazinyl)methyl)-N-ethyl-1,3-dihydrofuro[3,4-c]quinoline-8-carboxamide]",6020 nM,157 nM
"CCN(Cc1ccc(OC(F)F)nn1)C(=O)c1cc2c3c(c(N)nc2cc1F)COC3 [Example 724, 4-amino-N-((6-(difluoromethoxy)-3-pyridazinyl)methyl)-N-ethyl-7-fluoro-1,3-dihydrofuro[3,4-c]quinoline-8-carboxamide]",2440 nM,54 nM
"CCN(Cc1ccc(OC(F)F)nn1)C(=O)c1ccc2nc(N)c3c(c2c1)CO[C@@H]3C [Example 726, (3R)-4-amino-N-((6-(difluoromethoxy)-3-pyridazinyl)methyl)-N-ethyl-3-methyl-1,3-dihydrofuro[3,4-c]quinoline-8-carboxamide]",7520 nM,109 nM

# Other lines, results leading:
IC50 (HCT116 WT cells),IC50 (HCT116 MTAP null cells),Structure (SMILES)
2580 nM,96 nM,"Nc1nc2cnc(C(=O)N(Cc3ccc(C(F)(F)F)cn3)C34CC(C3)C4)cc2c2c1COC2 [Example 689, 4-amino-N-(bicyclo[1.1.1]pentan-1-yl)-N-((5-(trifluoromethyl)-2-pyridinyl)methyl)-1,3-dihydrofuro[3,4-c][1,7]naphthyridine-8-carboxamide]"
> 10000 nM,449 nM,"CN(Cc1ccc(C(F)(F)F)cc1)C(=O)c1cc2c3c(c(N)nc2cn1)COC3 [Example 692, 4-amino-N-methyl-N-(4-(trifluoromethyl)benzyl)-1,3-dihydrofuro[3,4-c][1,7]naphthyridine-8-carboxamide]"
> 10000 nM,2020 nM,"CN(Cc1ccc(C(F)(F)F)nc1)C(=O)c1cc2c3c(c(N)nc2cn1)COC3 [Example 693, 4-amino-N-methyl-N-((6-(trifluoromethyl)-3-pyridinyl)methyl)-1,3-dihydrofuro[3,4-c][1,7]naphthyridine-8-carboxamide]"
4990 nM,210 nM,"CCN(Cc1ccc(C(F)(F)F)nn1)C(=O)c1ccc2nc(N)c3c(c2c1)COC3 [Example 695, 4-amino-N-ethyl-N-((6-(trifluoromethyl)-3-pyridazinyl)methyl)-1,3-dihydrofuro[3,4-c]quinoline-8-carboxamide]"
> 10000 nM,261 nM,"CCN(Cc1ccc(C(F)(F)F)nn1)C(=O)c1cc2c3c(c(N)nc2cn1)COC3 [Example 696, 4-amino-N-ethyl-N-((6-(trifluoromethyl)-3-pyridazinyl)methyl)-1,3-dihydrofuro[3,4-c][1,7]naphthyridine-8-carboxamide]"
4500 nM,206 nM,"CCN(Cc1ccc(Cl)cn1)C(=O)c1cc2c3c(c(N)nc2cn1)COC3 [Example 698, 4-amino-N-((5-chloro-2-pyridinyl)methyl)-N-ethyl-1,3-dihydrofuro[3,4-c][1,7]naphthyridine-8-carboxamide]"
7250 nM,193 nM,"CCN(Cc1ccc(Cl)cn1)C(=O)c1ccc2nc(N)c3c(c2c1)COC3 [Example 701, 4-amino-N-((5-chloro-2-pyridinyl)methyl)-N-ethyl-1,3-dihydrofuro[3,4-c]quinoline-8-carboxamide]"
8150 nM,337 nM,"CCN(Cc1ccc(C(F)(F)F)nc1)C(=O)c1ccc2nc(N)c3c(c2c1)COC3 [Example 703, 4-amino-N-ethyl-N-((6-(trifluoromethyl)-3-pyridinyl)methyl)-1,3-dihydrofuro[3,4-c]quinoline-8-carboxamide]"
> 10000 nM,549 nM,"CCN(Cc1ccc(C(F)(F)F)nc1)C(=O)c1cc2c3c(c(N)nc2cn1)COC3 [Example 704, 4-amino-N-ethyl-N-((6-(trifluoromethyl)-3-pyridinyl)methyl)-1,3-dihydrofuro[3,4-c][1,7]naphthyridine-8-carboxamide]"
3450 nM,172 nM,"CCN(Cc1ccc(C(F)(F)F)cc1)C(=O)c1ccc2nc(N)c3c(c2c1)COC3 [Example 706, 4-amino-N-ethyl-N-(4-(trifluoromethyl)benzyl)-1,3-dihydrofuro[3,4-c]quinoline-8-carboxamide]"
2870 nM,106 nM,"CCN(Cc1ccc(C(F)(F)F)cc1)C(=O)c1cc2c3c(c(N)nc2cn1)COC3 [Example 707, 4-amino-N-ethyl-N-(4-(trifluoromethyl)benzyl)-1,3-dihydrofuro[3,4-c][1,7]naphthyridine-8-carboxamide]"
> 10000 nM,484 nM,"CCN(Cc1ccc(Br)nn1)C(=O)c1cc2c3c(c(N)nc2cn1)COC3 [Example 710, 4-amino-N-((6-bromo-3-pyridazinyl)methyl)-N-ethyl-1,3-dihydrofuro[3,4-c][1,7]naphthyridine-8-carboxamide]"
